Legend:
human CB1 receptors = target: T1, human CB1 receptors (Homo sapiens, UniProt P21554); assay: [3H]-CP-55,940 competition binding, CHO cell membranes transfected with human CB1 receptors
T1 construct: host or cells: CHO cells
Method: To obtain membranes, cells were washed with phosphate-buffered saline (PBS) and scraped off with ice-cold hypotonic buffer (5 mM Tris HCl, 2 mM EDTA, pH 7.4). The cell suspension was homogenized with a Polytron and then centrifuged for 30 min at 40,000× g. The membrane pellet was suspended in 50 mM Tris HCl buffer (pH 7.4) containing 2.5 mM ethylenediaminetetraacetic acid (EDTA), 5 mM MgCl2, and 0.5 mg/mL bovine serum albumin (BSA) for CB1 receptors or in 50 mM Tris HCl (pH 7.4), 1 mM EDTA, 5 mM MgCl2, and 0.5% BSA for CB2 receptors.
For human cannabinoid receptors, membranes obtained from CHO cells transfected with human CB1 or CB2 receptors (2 µg protein/100 µL) were used. Competition binding experiments at murine cannabinoid receptors were performed with mouse brain membranes (40 µg protein/100 µL) or with mouse spleen membranes (80 µg protein/100 µL) for CB1 receptors or CB2 receptors, respectively. […] Bound and free radioactivity were separated by filtering the assay mixture through Whatman GF/C glass fiber filters using a Brandel cell harvester (Brandel Instruments, Unterföhring, Germany).
The protein concentration was determined according to a Bio-Rad method with bovine serum albumin as a reference standard. Inhibitory binding constants, Ki, were calculated from the IC50 values according to the Cheng and Prusoff equation:Ki = IC50/(1 + [C*]/KD*) where [C*] is the concentration of the radioligand and KD* its dissociation constant. Functional experiments were analyzed by non-linear regression analysis using the equation for a sigmoid concentration–response curve (GraphPad Prism, San Diego, CA, USA). All the data are expressed as the mean ± SEM of three independent experiments.

[1] = system: fEPSP of CA1 area of mouse hippocampal slice; assay: Electrophysiological recording of fEPSP in hippocampal slices; type: cell-based; conditions: for fEPSP slope, % changes compared to control condition: steady state
Method: Procedures for tissue preparation are the same as those described by Ossato et al., 2016 [45]. In brief, after mouse decapitation, the head was immediately chilled in refrigerated artificial cerebrospinal fluid (aCSF, 0 °C) of the following composition (in mM): NaCl, 126; KCl, 2; KH2PO4, 1.25; NaHCO3, 26; MgSO4, 2.0; CaCl2, 2.5; d-glucose, 10. After 1 min, the brain was extracted to isolate the hippocampus and then placed in ice-cold artificial cerebrospinal fluid (aCSF). All solutions were saturated with 95% O2/5% CO2. Transverse hippocampal slices (425 μm thick) were cut with a tissue chopper and then placed for almost 90 min in a Haas-style incubation chamber for recovery before recording.
A single slice was transferred into a submerged-type recording chamber (3 mL total volume) and continuously superfused (3.0 mL/min) with warmed (32–33 °C) aCSF. WINLTP 2.10 computer software was used for stimulus triggering, PC recording, and analysis. Synaptic responses of CA1 pyramidal neurons were elicited by electrical stimulation of the Schaffer collateral/commissural pathway. Single stimulation pulses (80 µs duration; 0.05 Hz) were delivered by mean of a concentric bipolar electrode (o.d. 125 μm, FHC, USA) connected to a Grass S11 stimulator driving a PSIU6 constant current stimulus isolation unit. To record the fEPSPs, borosilicate glass electrodes fabricated using a microelectrode puller (P97, Sutter Instruments) and filled with aCSF (1.5 ± 0.5 MΩ), inserted in the distal third of the stratum radiatum and 200–300 µm away from stimulating electrodes, were used. The maximal fEPSPs response was reached by adjusting the recording electrode depth. Recorded potentials were amplified (Axoprobe 1A DC-coupled—Cyberamp 320, Molecular Devices, Sunnyvale, CA, USA) and filtered (5.0 kHz) prior to A/D conversion. Upon 10 min of stable synaptic response, a stimulus–response curve (SRC) was generated as previously described to extrapolate a stimulation intensity evoking 70% of maximal fEPSP, to be used throughout the experiment. […] To investigate whether the vehicle had any effect on synaptic activity, the superfusion inlet was switched to a reservoir containing aCSF plus the amount of vehicle present for the corresponding drug concentration (sham application), before switching to the solution also including the drug, for comparison. All reservoirs and tubing were on glass or Teflon to avoid the capturing of cannabinoids by plastic or silicon parts.
We analyzed data from in vitro recordings as previously described. […] Effect of treatment was considered steady state when stable +/− 5% for 10 min.

[2] = Plasma (and brain) levels of JWH-175 and JWH-018 in mice by LC-MS/MS; type: in vivo, mouse; conditions: for presence in the brain tissue of mice systemically treated with JWH-175: data not shown
Method: For the in vivo studies, three different groups of mice were selected. […] Urine specimens were collected from mice individually placed inside metabolic cages (Ugo Basile SRL, Gemonio (VA), Italy) with free access to water and food. The same dose of JWH-175 was administered to the second group, and behavioral tests were performed before the blood collection. Tests and sampling were carried out, at 0, 30, 60, and 300 min, on a sub-group of six mice at each time interval. The same behavioral studies and blood sampling were performed on the third group, to which JWH-018 (10 mg/kg) was injected. Blood samples (mean total volume: 500 μL) were collected by submandibular blood collection technique into 1 mL vials containing EDTA (4 mg/mL of blood) as preservative and anticoagulant. After each blood withdrawal, an equal volume of saline solution was subcutaneously injected into mice to maintain volume and osmotic homeostasis. Plasma from collected blood and urine samples were stocked at −20 °C until the analysis.
For blood metabolic profile, samples were centrifugated at 9000× g rpm for 8 min to obtain plasma. Then, 200 µL of the supernatant was added to 500 μL of acetonitrile and centrifugated at 13,000× g rpm for 3 min. The aqueous layer was then collected and added to 50 μL of internal standard solution (10 μg/mL) and 500 μL of phosphate buffer (0.8 M, pH 7.4). Samples were then incubated for 1 h at 55 °C. After hydrolysis, samples were extracted with 5 mL of ethyl acetate. The organic solvent was then dried under nitrogen flow at 40 °C, and the dry residue was resolved in 50 μL of mobile phase and an aliquot of 10 µL was injected into the LC-MS systems.
Samples were analyzed using an Agilent 1200 series high-performance liquid chromatography (HPLC) instrument equipped with a SUPELCO C18 column (15 cm × 2.1 mm × 5 µm) coupled with a Sciex 5500QTRAP triple quadrupole mass spectrometer (Sciex, Milan, Italy) with an ESI source operated in positive ionization mode. Analyses were carried out at a constant flow rate of 250 µL/min using ultra-purified water, 0.1% formic acid (A), and acetonitrile 0.1% formic acid (B) as mobile phase. The gradient started at 5% eluent B, was increased to 65% eluent B in 7 min and after 4 min to 95% eluent B in 2 min, held for 4.5 min, decreased to starting conditions of 5% eluent B in 0.31 min, and held for 2 min for re-equilibration
Multiple reaction monitoring (MRM) was used as the acquisition mode (see Table 3). The MRM method was optimized starting from the protocol employed in our laboratory.

T1 sequence (P21554 whole entry): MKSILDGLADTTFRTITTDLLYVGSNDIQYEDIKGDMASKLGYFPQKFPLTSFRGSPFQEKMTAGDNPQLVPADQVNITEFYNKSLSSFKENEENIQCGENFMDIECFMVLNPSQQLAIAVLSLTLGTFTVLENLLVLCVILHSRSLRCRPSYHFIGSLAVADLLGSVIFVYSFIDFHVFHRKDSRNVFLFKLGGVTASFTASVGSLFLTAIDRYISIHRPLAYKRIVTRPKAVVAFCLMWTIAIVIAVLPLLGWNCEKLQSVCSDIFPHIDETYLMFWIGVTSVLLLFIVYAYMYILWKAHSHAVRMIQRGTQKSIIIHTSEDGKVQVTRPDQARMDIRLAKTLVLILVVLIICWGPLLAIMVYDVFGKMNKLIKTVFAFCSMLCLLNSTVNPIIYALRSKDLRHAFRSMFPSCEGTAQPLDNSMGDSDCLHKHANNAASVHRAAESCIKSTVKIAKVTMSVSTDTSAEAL

Q: For `CCCCCn1cc(C(=O)c2cccc3ccccc23)c2ccccc21` [JWH-018, 1-naphthalenyl(1-pentyl-1H-indol-3-yl)-methanone], which “selectivity index (ratio between the Ki value to human CB2 and the Ki value to human CB1)” value (human CB1 receptors; human CB2 / human CB1) is on record?
A: The value was 0.9.

Q: What about the “fold higher affinity than JWH-175 at human CB1 receptors” value (human CB1 receptors; ratio of Ki values, CHO cell membranes) of the same compound?
A: Its value is 2.71 fold.

Q: And the “fEPSP slope, % changes compared to control condition” value (“fEPSP slope, % changes” for short) ([1]; 0.1 µM)?
A: Its value is −34.7 ± 7.9%.

Q: And the “fEPSP slope, % changes” value ([1]; 0.3 µM)?
A: Its value is −40.4 ± 8.4%.

Q: What about the “fEPSP slope, % changes” value ([1]; 1 µM, last 3 min of recording) of the same compound?
A: Its value is −48.8 ± 7.6%.

Q: And the “time of peak plasmatic concentration of JWH-018” value ([2]; JWH-018 10 mg/kg i.p., mouse plasma)?
A: The value was 30 min.

Q: What about the “presence in the brain tissue of mice systemically treated with JWH-175” value [2] of the same compound?
A: Its value is “presence”.

Q: With `CCCCCn1cc(Cc2cccc3ccccc23)c2ccccc21` [JWH-175, 3-(1-naphthalenylmethyl)-1-pentyl-1H-indole] as the compound, how does the Ki (human CB1 receptors) read?
A: Its Ki is 25.8 ± 1.9 nM.

Q: What about the “fEPSP slope, % changes” value ([1]; 1 µM, last 3 min of recording) of the same compound?
A: Its value is −23.7 ± 5.7%.

Q: What about the “effect on fEPSP” value ([1]; 0.01−0.3 µM) of the same compound?
A: The value was “failed to affect fEPSP”.

Q: What about the “times less potent than JWH-018 in inhibiting fEPSP” value ([1]; CA1 hippocampal slices, 0.01–1 µM) of the same compound?
A: Its value is “about 10 times”.

Q: And the “time after administration within which JWH-175 itself was detected in plasma” value ([2]; JWH-175 10 mg/kg i.p., mouse plasma)?
A: Its value is at most 30 min.

Q: And the “presence in the brain tissue of mice systemically treated with JWH-175” value [2]?
A: Its value is “only traces”.
